Test results reported in ChEMBL document CHEMBL1201862, “PubChem BioAssay data set” (2004).
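Protocol summary: plate cells (96-well), add compound at 5 concentrations, incubate 48 h, interpolate endpoints linearly. GI50 = concentration required for 50% inhibition of growth.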 Calls of active or inactive are those of the source. Rule as the data show it: active = GI50 up to about 1.1 µM and inactive = higher.

Key:
Experiment in all cases: growth of human tumour cells (NCI), 48 h
BT-549 = tested on: BT-549
OVCAR-3 = tested on: OVCAR-3
PC-3 = tested on: PC-3
A498 = tested on: A498
SW-620 = tested on: SW-620
SNB-75 = tested on: SNB-75
SNB-19 = tested on: SNB-19
MDA-MB-435 = tested on: MDA-MB-435
HCT-15 = tested on: HCT-15
786-0 = tested on: 786-0
MCF7 = tested on: MCF7
T47D = tested on: T47D
NCI-H23 = tested on: NCI-H23
NCI-H226 = tested on: NCI-H226
DU-145 = tested on: DU-145
NCI-H522 = tested on: NCI-H522
HOP-92 = tested on: HOP-92
RXF 393 = tested on: RXF 393
EKVX = tested on: EKVX

| SMILES | GI50 (BT-549) | GI50 (OVCAR-3) | GI50 (PC-3) | GI50 (A498) | GI50 (SW-620) | GI50 (SNB-75) | GI50 (SNB-19) | GI50 (MDA-MB-435) | GI50 (HCT-15) | GI50 (786-0) | GI50 (MCF7) | GI50 (T47D) | GI50 (NCI-H23) | GI50 (NCI-H226) | GI50 (DU-145) | GI50 (NCI-H522) | GI50 (HOP-92) | GI50 (RXF 393) | GI50 (EKVX) |
| --- | --- | --- | --- | --- | --- | --- | --- | --- | --- | --- | --- | --- | --- | --- | --- | --- | --- | --- | --- |
| CN(C)CCNC(=O)c1cccc(NC(=O)c2ccccc2)c1[N+](=O)[O-] | 53.8 µM (inactive) | 27.7 µM (inactive) | > 100 µM (inactive) | > 100 µM (inactive) | > 100 µM (inactive) | 36 µM (inactive) | > 100 µM (inactive) | > 100 µM (inactive) | > 100 µM | > 100 µM (inactive) | > 100 µM (inactive) | > 100 µM (inactive) | > 100 µM (inactive) | > 100 µM (inactive) | > 10 µM (inactive) | > 100 µM (inactive) |  |  |  |
| Nc1c(Cl)c([N+](=O)[O-])cc2c1OCCCCO2 |  | > 100 µM (inactive) | > 100 µM (inactive) |  | > 100 µM (inactive) | 23.8 µM (inactive) | > 10 µM (inactive) | > 100 µM (inactive) | > 100 µM | > 100 µM (inactive) | > 100 µM (inactive) | > 100 µM (inactive) | > 100 µM (inactive) | 72.3 µM (inactive) | > 100 µM (inactive) | 2.32 µM (inactive) | 38.4 µM (inactive) | > 100 µM (inactive) | 61.8 µM (inactive) |
| O=[N+]([O-])c1ccc(NN/N=N/c2ccc(-c3nc4ccccc4s3)cc2)c([N+](=O)[O-])c1 | 23.8 µM (inactive) | 19.8 µM (inactive) | 24.4 µM (inactive) | 4.34 µM (inactive) | 37.6 µM (inactive) | 24.8 µM (inactive) | 31.1 µM (inactive) | 24.1 µM (inactive) | 22.7 µM | 20.8 µM (inactive) |  | 19.1 µM (inactive) | 20.7 µM (inactive) | 29.5 µM (inactive) | 30.7 µM (inactive) | 25 µM (inactive) | 21 µM (inactive) | 18.7 µM (inactive) | 15 µM (inactive) |
| C=C1CCC2C(C)(CO)C(O)CCC2(C)C1C/C=C1/CCOC1=O (stereo unspecified) |  | > 100 µM (inactive) |  | > 100 µM (inactive) | > 100 µM (inactive) | > 100 µM (inactive) | > 100 µM (inactive) |  | > 100 µM | > 100 µM (inactive) |  |  | > 100 µM (inactive) | > 100 µM (inactive) |  | 31.3 µM (inactive) | > 100 µM (inactive) |  | > 100 µM (inactive) |
| Cc1cc(C)c(S(=O)(=O)N2CCN(S(=O)(=O)c3c(C)cc(C)cc3C)OCCCCCO2)c(C)c1 | > 100 µM (inactive) | > 100 µM (inactive) | 6.22 µM (inactive) | > 100 µM (inactive) | > 100 µM (inactive) |  | > 100 µM (inactive) | > 100 µM (inactive) | > 100 µM | > 100 µM (inactive) | > 100 µM (inactive) |  | > 100 µM (inactive) | > 100 µM (inactive) | > 100 µM (inactive) | > 100 µM (inactive) | 62.1 µM (inactive) |  | > 100 µM (inactive) |
| O=C1/C(=C/C=C/c2ccccc2)N=C(c2ccccc2)N1C1Nc2cc3c(cc2S1)NC(N1C(=O)/C(=C/C=C/c2ccccc2)N=C1c1ccccc1)S3 (stereo unspecified) |  | 46.9 µM (inactive) | 65.2 µM (inactive) | 15.5 µM (inactive) | 22.4 µM (inactive) |  |  | 31.9 µM (inactive) | 40.9 µM | 45.9 µM (inactive) | 29.9 µM (inactive) | 30.3 µM (inactive) | 66.5 µM (inactive) | > 100 µM (inactive) | 38.8 µM (inactive) | 10.3 µM (inactive) | 22.2 µM (inactive) | 33.8 µM (inactive) | > 100 µM (inactive) |
| COc1ccccc1/C=C1\NC(=S)N(/C=C2\C(=O)Oc3ccccc3C2=O)C1=O | 21.9 µM (inactive) | 32.1 µM (inactive) | 44.2 µM (inactive) |  | 53.2 µM (inactive) | 30.1 µM (inactive) | 38.2 µM (inactive) | 35.2 µM (inactive) | 32.2 µM | 52.5 µM (inactive) | 71.4 µM (inactive) |  | 35.9 µM (inactive) | 14.6 µM (inactive) | 21.1 µM (inactive) | 39.4 µM (inactive) | 7.76 µM (inactive) | 38.5 µM (inactive) | 16.9 µM (inactive) |
| CC1(C)CC2(S(=O)(=O)c3ccccc3)ON1CC2S(=O)(=O)c1ccccc1 (stereo unspecified) |  | > 100 µM (inactive) |  |  | > 100 µM (inactive) | > 100 µM (inactive) | > 100 µM (inactive) |  | > 100 µM | > 100 µM (inactive) |  |  | 88.5 µM (inactive) | > 100 µM (inactive) |  | 29.4 µM (inactive) |  | 48.4 µM (inactive) | > 100 µM (inactive) |
| COC(=O)[C@@H]1OC(C)(c2ccccc2)O[C@H]1C(=O)OC |  | > 100 µM (inactive) | > 100 µM (inactive) | > 100 µM (inactive) | > 100 µM (inactive) | > 100 µM (inactive) | > 100 µM (inactive) | > 100 µM (inactive) | > 100 µM | > 100 µM (inactive) | > 100 µM (inactive) | > 100 µM (inactive) | > 100 µM (inactive) | > 100 µM (inactive) | > 100 µM (inactive) | > 100 µM (inactive) | > 100 µM (inactive) | > 100 µM (inactive) | > 100 µM (inactive) |
